Legend:
A549 xenograft = test: athymic mouse A549 xenograft model; type: in vivo, mice
Experimental: Female athymic nu/nu mice (6-8 weeks old) were purchased from Simonsen labs (n=12) and were housed at the Murigenics vivarium in Vallejo. The mice were acclimated to the setting of the vivarium for 5 days and maintained on a standard chow diet; 12:12 dark/light cycle; and group housed (3 mice per cage) in hepa-filtered cages. After acclimation, each mouse was injected subcutaneously (lower left abdominal flank) with 5×10^6 A549 (ATCC: CCL-185) cells mixed with 1:1 (v/v) with Matrigel solution. When the tumors reached a volume of ˜100 mm3, the mice were divided into separate treatment groups for the desired treatments. Experiments using both intra-tumoral (IT) and intraperitoneal (IP) administration were performed and the data are reported in FIG. 19.
Mice prepared as described above were divided into 4 groups: • Group 1: were not treated with anything (n=3) • Group 2: received an intra-tumoral injection of 50 microliters of Phosphate Buffered Saline (mock) (n=3) • Group 3: received an intra-tumoral injection of 50 microliters of 10 mg/ml compound 10 in Phosphate Buffered Saline (n=3) • Group 4: received an intra-tumoral injection of 50 microliters of 20 mg/ml compound 10 in Phosphate Buffered Saline (n=3)
The 50 microliter injections were carried out with a (30 g needle). The injections were administered on day zero and then again on day 3. The length (L) and the width (W) of the tumor mass was measured with a Vernier caliper and the tumor volume (V) was calculated as V=(L×W^2)/2. The relative tumor volume of each tumor mass on each measurement day was normalized against the initial volume of the same mass on day zero right before initiation of injections. […]
The injections were carried out with a 30 g needle. […] The length (L) and the width (W) of the tumor mass was measured with a Vernier caliper and the tumor volume (V) was calculated as V=(L×W^2)/2. […]

RAD51 = biological target: T1, RAD51 (Homo sapiens, UniProt Q06609); test: microscale thermophoresis; type: binding
T1 sequence (Q06609 1-339): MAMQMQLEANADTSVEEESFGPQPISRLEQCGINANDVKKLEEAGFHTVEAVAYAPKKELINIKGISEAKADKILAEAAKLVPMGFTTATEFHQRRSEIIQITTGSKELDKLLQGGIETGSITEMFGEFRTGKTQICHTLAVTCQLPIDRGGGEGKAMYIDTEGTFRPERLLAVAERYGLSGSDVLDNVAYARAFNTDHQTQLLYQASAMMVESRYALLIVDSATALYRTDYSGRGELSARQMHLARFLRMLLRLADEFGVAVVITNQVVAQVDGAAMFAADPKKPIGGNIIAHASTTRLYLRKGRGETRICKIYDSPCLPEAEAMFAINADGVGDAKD
Experimental: To test the interaction between calcium binding and peptide binding to RAD51, the Kds of active (Compound 5, 10) peptides for RAD51 were tested by a microscale thermophoresis assay, and the Kd of compound 5 was additionally performed in the presence of 1 mM calcium.
Microscale thermophoresis was performed as previously described (see, for e.g. Jerabek-Willemsen, M., Wienken, C. J., Braun, D., Baaske, P. & Duhr, S. Molecular interaction studies using microscale thermophoresis. Assay Drug Dev. Technol. 9, 342-353 (2011)). The affinity of the Compound was measured using the Monolith NT.115 from Nanotemper Technologies. Rad51 was fluorescently labelled according to the manufacturer's protocol and the labelled protein used for each assay was about 500 nM. A solution of unlabelled peptide was diluted for appropriate serial concentration gradient. The samples were loaded into silica capillaries (Polymicro Technologies). Measurements were performed at room temperature in buffer containing PBS, 0.1% Tween 20, 0.5 mM ATP, 2.5 uM ssDNA, with 1 mM CaCl2 (when mentioned). Measurements were done using 12% LED power and 60% MST power. The assays were repeated three times for each affinity measurement. Data analyses were performed using Nanotemper Analysis software and OriginPro 8.0 software provided by the manufacturer.

SSP-25 cells = test: xCELLigence cell death assay; type: cell-based; settings: 10 μM compound 10 alone
Experimental: Further, singly-dosed cells continued to recover, which indicated reduced general cytotoxicity of the compound in the media or the lysed cells.
(§1) To optimize cellular activity, compounds were tested in xCELLigence cell death assays against various cell lines. An example of the workflow used is shown using A549 cells and compound 10 in FIGS. 15 and 16. […] Data from xCELLigence traces at different compound concentrations from FIG. 15 was then used to generate a dose-response curve, which was then subjected to nonlinear regression using a sigmoidal dose-response model to generate IC50s and R2 values for cell death for each compound/cell line combination (FIG. 16).
To further investigate the hypothesis that peptide binding to RAD51 in cells causes cell death via increases in intracellular free calcium levels, compound 10 alone and in combination with two different intracellular calcium chelators (1,2-Bis(2-aminophenoxy) ethane-N,N,N′,N′-tetraacetic acid tetrakis(acetoxymethyl ester) aka “BAPTA-AM”, and ammoniated ruthenium oxychloride aka “ruthenium red”) was tested in an xCELLigence™ cell death assay as in Example 3. The intracellular calcium chelators alone were also evaluated on the cells.

A549 cells = test: xCELLigence cell death assay; type: cell-based; settings: FIG. 15
Experimental: as §1

With `CSCC[C@@H](NC(=O)[C@@H](CC(C)C)NC(C)=O)C(=O)N[C@H](CCCNC(=N)N)C(=O)N[C@H](CO)C(=O)N[C@@H](C(=O)N[C@H](CCCNC(=N)N)C(=O)N[C@H](CC(C)C)C(=O)N[C@H](CCCNC(=N)N)C(=O)N[C@@H](C(=O)NCC(=O)N[C@H](CC(C)C)C(=O)N[C@H](CCCNC(=N)N)C(=O)N[C@H](CCCCN)C(=O)N[C@H](CCCNC(=N)N)C(=O)N[C@H](CCCNC(=N)N)C(=O)N[C@H](CCCNC(=N)N)C(=O)N[C@H](CCCNC(=N)N)C(=O)N[C@H](CCCNC(=N)N)C(=O)N[C@H](CCCNC(=N)N)C(=O)N[C@H](CCCNC(=N)N)C(N)=O)C(C)C)C(C)C` [Compound 10, Ac-lmrsvrlrvGlrkrrrrrrr-NH2] the “relative tumor volume, intra-tumoral dosing” value (A549 xenograft; 50 microliters of 10 or 20 mg/ml intra-tumoral on day 0 and day 3, measured days 0, 3, 6) was “measurable decreases in tumor size as early as day 3”, the “relative tumor volume, intra-peritoneal dosing” value (A549 xenograft; 125 microliters of 3 mg/ml intra-peritoneal on day 7, measured days 0-10) was “measurable decreases in tumor size as early as 3 days after injection (day 10)” and the tumor volume (A549 xenograft; FIG. 19, intratumoral and intraperitoneal) was “significant effects on tumor volume after only a few days of treatment”. For the same compound, the Kd (RAD51; PBS) was 8.55 nM, the Kd (RAD51; without added calcium) was about 8 nM and the “cell death of SSP-25 cells, compound alone” value (SSP-25 cells) was “significant cell death”. For the same compound, the “cell killing of A549 cells (cell index)” value (A549 cells) was “cell killing of A549 cells”.
